Measured values from patent US6737383B1, “Herbicidal oxadiazolidines” (priority 1999, dated 2004).

Legend:
wheat = experiment: Test B pre/postemergence wheat; format: in vivo, Triticum aestivum
Outline: (§1)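 Herbicidal effect was estimated by eye on a ten-point control scale after plants spent twelve to sixteen days in a greenhouse following soil or foliar treatment. Foliar sprays targeted plants at one to four leaves; all doses were formulated in a non-phytotoxic solvent with surfactant.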

duck salad = experiment: Test B flood test duck salad; format: in vivo, Heteranthera limosa
Outline: (§2)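 Each value is a visual injury score relative to controls, with 10 meaning complete control and 0 no effect. Evaluation took place twelve to sixteen days after the 2-leaf-stage plants were treated and kept in the greenhouse.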

soybean = experiment: Test B pre/postemergence soybean; format: in vivo, Glycine max
Outline: as §1

cocklebur = experiment: Test B pre/postemergence cocklebur; format: in vivo, Xanthium strumarium
Outline: as §1

wild oat = experiment: Test B pre/postemergence wild oat; format: in vivo, Avena fatua
Outline: as §1

rape = experiment: Test B pre/postemergence rape; format: in vivo, Brassica napus
Outline: as §1

smallflower flatsedge = experiment: Test B flood test smallflower flatsedge; format: in vivo, Cyperus difformis
Outline: as §2

surinam grass = experiment: Test B pre/postemergence surinam grass; format: in vivo, Brachiaria decumbens
Outline: as §1

blackgrass = experiment: Test B pre/postemergence blackgrass; format: in vivo, Alopecurus myosuroides
Outline: as §1

bamyardgrass = experiment: Test B flood test barnyardgrass; format: in vivo, Echinochloa crus-galli
Outline: as §2

bedstraw = experiment: Test B pre/postemergence bedstraw; format: in vivo, Galium aparine
Outline: as §1

crabgrass = experiment: Test B pre/postemergence crabgrass; format: in vivo, Digitaria sanguinalis
Outline: as §1

corn = experiment: Test B pre/postemergence corn; format: in vivo, Zea mays
Outline: as §1

velvetleaf = experiment: Test B pre/postemergence velvetleaf; format: in vivo, Abutilon theophrasti
Outline: as §1

morningglory = experiment: Test B pre/postemergence morningglory; format: in vivo, Ipomoea hederacea
Outline: as §1

giant foxtail = experiment: Test B pre/postemergence giant foxtail; format: in vivo, Setaria faberii
Outline: as §1

[1] = Postemergence, Rate 125 g/ha, scale of 0 to 10 where 0 is no effect and 10 is complete control
[2] = Preemergence, Rate 62 g/ha, scale 0 to 10 (0 no effect, 10 complete control)
[3] = Preemergence, Rate 125 g/ha, 0 is no effect, 10 is complete control
[4] = Preemergence, Rate 250 g/ha, scale 0 to 10, 0 is no effect, 10 is complete control
[5] = Preemergence, Rate 500 g/ha, scale 0 to 10 (0 no effect, 10 complete control)
[6] = Rate 62 g/ha, Postemergence, scale of 0 to 10 where 0 is no effect and 10 is complete control
[7] = Rate 250 g/ha, Postemergence, scale 0 to 10, 0 is no effect, 10 is complete control
[8] = Rate 500 g/ha, Postemergence, scale 0 to 10
[9] = Postemergence (flood test species), Rate 125 g/ha, scale of 0 to 10 where 0 is no effect and 10 is complete control
[10] = Rate 62 g/ha, Postemergence section, flood test species, scale of 0 to 10 where 0 is no effect and 10 is complete control
[11] = Rate 250 g/ha, Postemergence (flood test), scale 0 to 10, 0 is no effect, 10 is complete control
[12] = Rate 500 g/ha, listed under Postemergence (flood test species), scale 0 to 10

COc1ccccc1Cn1c(=O)on(C(=O)N(c2ccc(F)cc2)C(C)C)c1=O [Compound 143]
Wheat plant response rating (wheat; [1]): 0
Wheat plant response rating (wheat; [2]): 0
Wheat plant response rating (0 to 10 scale) (wheat; [3]): 0
Wheat plant response rating (wheat; [4]): 0
Wheat plant response rating (wheat; [5]): 0
Wheat plant response rating (wheat; [6]): 0
Plant response rating, Wheat (wheat; [7]): 0
Wheat plant response rating (wheat; [8]): 0
Ducksalad plant response rating (duck salad; [9]): 0
Ducksalad plant response rating (duck salad; [10]): 0
Plant response rating, Ducksalad (duck salad; [11]): 0
Ducksalad plant response rating (duck salad; [12]): 5
Soybean plant response rating (soybean; [1]): 3
Soybean plant response rating (soybean; [2]): 0
Soybean plant response rating (0 to 10 scale) (soybean; [3]): 0
Soybean plant response rating (soybean; [4]): 0
Soybean plant response rating (soybean; [5]): 1
Soybean plant response rating (soybean; [6]): 3
Plant response rating, Soybean (soybean; [7]): 4
Soybean plant response rating (soybean; [8]): 5
Cocklebur plant response rating (cocklebur; [1]): 3
Cocklebur plant response rating (cocklebur; [2]): 0
Cocklebur plant response rating (0 to 10 scale) (cocklebur; [3]): 0
Cocklebur plant response rating (cocklebur; [5]): 0
Cocklebur plant response rating (cocklebur; [6]): 1
Plant response rating, Cocklebur (cocklebur; [7]): 3
Cocklebur plant response rating (cocklebur; [8]): 4
Wild oats plant response rating (wild oat; [1]): 0
Wild oats plant response rating (wild oat; [2]): 0
Wild oats plant response rating (0 to 10 scale) (wild oat; [3]): 5
Wild oats plant response rating (wild oat; [4]): 5
Wild oats plant response rating (wild oat; [5]): 5
Wild oats plant response rating (wild oat; [6]): 0
Plant response rating, Wild oats (wild oat; [7]): 0
Wild oats plant response rating (wild oat; [8]): 0
Rape plant response rating (rape; [1]): 0
Rape plant response rating (rape; [2]): 0
Rape plant response rating (0 to 10 scale) (rape; [3]): 3
Rape plant response rating (rape; [4]): 4
Rape plant response rating (rape; [5]): 6
Rape plant response rating (rape; [6]): 0
Plant response rating, Rape (rape; [7]): 0
Rape plant response rating (rape; [8]): 3
S. Flatsedge plant response rating (smallflower flatsedge; [9]): 0
S. Flatsedge plant response rating (smallflower flatsedge; [10]): 0
Plant response rating, S. Flatsedge (smallflower flatsedge; [11]): 2
S. Flatsedge plant response rating (smallflower flatsedge; [12]): 8
B. signalgrass plant response rating (surinam grass; [1]): 0
B. signalgrass plant response rating (surinam grass; [2]): 0
B. signalgrass plant response rating (0 to 10 scale) (surinam grass; [3]): 0
B. signalgrass plant response rating (surinam grass; [4]): 2
B. signalgrass plant response rating (surinam grass; [5]): 5
B. signalgrass plant response rating (surinam grass; [6]): 0
Plant response rating, B. signalgrass (surinam grass; [7]): 0
B. signalgrass plant response rating (surinam grass; Rate 500 g/ha, Postemergence, scale of 0 to 10 where 0 is no effect and 10 is complete control): 5
Blackgrass plant response rating (blackgrass; [1]): 3
Blackgrass plant response rating (blackgrass; [2]): 4
Blackgrass plant response rating (0 to 10 scale) (blackgrass; [3]): 5
Blackgrass plant response rating (blackgrass; [4]): 5
Blackgrass plant response rating (blackgrass; [5]): 6
Blackgrass plant response rating (blackgrass; [6]): 3
Plant response rating, Blackgrass (blackgrass; [7]): 5
Blackgrass plant response rating (blackgrass; [8]): 8
Barnyardgrass plant response rating (bamyardgrass; [9]): 8
Barnyardgrass plant response rating (bamyardgrass; [10]): 0
Plant response rating, Barnyardgrass (bamyardgrass; [11]): 8
Barnyardgrass plant response rating (bamyardgrass; Rate 500 g/ha, listed under Postemergence (flood test species), scale 0 to 10, 0 no effect, 10 complete control): 10
Bedstraw plant response rating (bedstraw; [1]): 6
Bedstraw plant response rating (bedstraw; [2]): 0
Bedstraw plant response rating (0 to 10 scale) (bedstraw; [3]): 0
Bedstraw plant response rating (bedstraw; [4]): 0
Bedstraw plant response rating (bedstraw; [5]): 0
Bedstraw plant response rating (bedstraw; [6]): 5
Plant response rating, Bedstraw (bedstraw; [7]): 6
Bedstraw plant response rating (bedstraw; Rate 500 g/ha, Postemergence, scale 0 to 10, 0 no effect, 10 complete control): 8
Crabgrass plant response rating (crabgrass; [1]): 8
Crabgrass plant response rating (crabgrass; [2]): 3
Crabgrass plant response rating (0 to 10 scale) (crabgrass; [3]): 7
Crabgrass plant response rating (crabgrass; [4]): 8
Crabgrass plant response rating (crabgrass; [5]): 10
Crabgrass plant response rating (crabgrass; [6]): 1
Plant response rating, Crabgrass (crabgrass; [7]): 8
Crabgrass plant response rating (crabgrass; [8]): 9
Corn plant response rating (corn; [1]): 0
Corn plant response rating (corn; [2]): 0
Corn plant response rating (0 to 10 scale) (corn; [3]): 0
Corn plant response rating (corn; [4]): 0
Corn plant response rating (corn; [5]): 0
Corn plant response rating (corn; [6]): 0
Plant response rating, Corn (corn; [7]): 0
Corn plant response rating (corn; [8]): 0
Velvetleaf plant response rating (velvetleaf; [1]): 2
Velvetleaf plant response rating (velvetleaf; [2]): 0
Velvetleaf plant response rating (0 to 10 scale) (velvetleaf; [3]): 0
Velvetleaf plant response rating (velvetleaf; [4]): 0
Velvetleaf plant response rating (velvetleaf; [5]): 0
Velvetleaf plant response rating (velvetleaf; [6]): 2
Plant response rating, Velvetleaf (velvetleaf; [7]): 2
Velvetleaf plant response rating (velvetleaf; [8]): 2
Morningglory plant response rating (morningglory; [1]): 6
Morningglory plant response rating (morningglory; [2]): 0
Morningglory plant response rating (0 to 10 scale) (morningglory; [3]): 0
Morningglory plant response rating (morningglory; [4]): 0
Morningglory plant response rating (morningglory; [5]): 0
Morningglory plant response rating (morningglory; [6]): 3
Plant response rating, Morningglory (morningglory; [7]): 8
Morningglory plant response rating (morningglory; [8]): 8
Giant foxtail plant response rating (giant foxtail; [1]): 2
Giant foxtail plant response rating (giant foxtail; [2]): 3
Giant foxtail plant response rating (0 to 10 scale) (giant foxtail; [3]): 9
Giant foxtail plant response rating (giant foxtail; [4]): 9
Giant foxtail plant response rating (giant foxtail; [5]): 10
Giant foxtail plant response rating (giant foxtail; [6]): 0
Plant response rating, Giant foxtail (giant foxtail; [7]): 5
Giant foxtail plant response rating (giant foxtail; [8]): 7
